The results in this text go back to patent US9951071B2 (priority 2012, dated 2018).

Where a name gives a salt, the structure may show the parent alone. Read-outs that look alike come from different tables or passages of the source.

For data set [1] the following is noted: rcm bond, 12-membered ring.
For data set [2] the following is noted: rcm bond, 12-membered ring, Grubbs II/pTsOH, DCM.
In data set [3] the target is purified human plasma kallikrein (Homo sapiens (Human), UniProt P03952). Nature of the data set: biochemical.
For data set [4], the target named is purified human Factor XIa (Homo sapiens (Human), UniProt P03951). The experiment in a line: biochemical.
Setting [5] is: from C=CC[C@H](NC(=O)OC(C)(C)C)c1cc(-c2ccccc2NC(=O)C(C=C)C(C)C)ccn1, Grubbs II (2 x 0.2 eq), microwave, DCE, 40.0 mM, […].

Sequence of purified human Factor XIa (P03951 whole entry, looked up): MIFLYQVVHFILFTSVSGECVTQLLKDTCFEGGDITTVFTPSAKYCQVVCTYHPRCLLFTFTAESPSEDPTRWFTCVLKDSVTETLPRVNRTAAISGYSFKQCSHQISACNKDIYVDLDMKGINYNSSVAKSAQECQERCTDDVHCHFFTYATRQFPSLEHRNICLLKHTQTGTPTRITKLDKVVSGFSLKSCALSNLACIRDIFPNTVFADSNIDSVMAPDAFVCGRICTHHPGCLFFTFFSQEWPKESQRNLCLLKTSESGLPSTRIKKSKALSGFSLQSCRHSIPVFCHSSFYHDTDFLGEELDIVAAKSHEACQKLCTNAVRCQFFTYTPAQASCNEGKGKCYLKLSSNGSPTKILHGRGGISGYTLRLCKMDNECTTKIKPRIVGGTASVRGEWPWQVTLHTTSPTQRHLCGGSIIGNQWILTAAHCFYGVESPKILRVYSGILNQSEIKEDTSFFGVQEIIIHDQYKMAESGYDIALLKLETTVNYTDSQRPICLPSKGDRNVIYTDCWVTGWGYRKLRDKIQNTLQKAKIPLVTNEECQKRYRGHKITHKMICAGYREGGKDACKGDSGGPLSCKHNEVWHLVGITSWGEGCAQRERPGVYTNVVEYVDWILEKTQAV
Sequence of purified human Factor XIa (P03951 whole entry, looked up): as above
Sequence of purified human plasma kallikrein (P03952 whole entry, looked up): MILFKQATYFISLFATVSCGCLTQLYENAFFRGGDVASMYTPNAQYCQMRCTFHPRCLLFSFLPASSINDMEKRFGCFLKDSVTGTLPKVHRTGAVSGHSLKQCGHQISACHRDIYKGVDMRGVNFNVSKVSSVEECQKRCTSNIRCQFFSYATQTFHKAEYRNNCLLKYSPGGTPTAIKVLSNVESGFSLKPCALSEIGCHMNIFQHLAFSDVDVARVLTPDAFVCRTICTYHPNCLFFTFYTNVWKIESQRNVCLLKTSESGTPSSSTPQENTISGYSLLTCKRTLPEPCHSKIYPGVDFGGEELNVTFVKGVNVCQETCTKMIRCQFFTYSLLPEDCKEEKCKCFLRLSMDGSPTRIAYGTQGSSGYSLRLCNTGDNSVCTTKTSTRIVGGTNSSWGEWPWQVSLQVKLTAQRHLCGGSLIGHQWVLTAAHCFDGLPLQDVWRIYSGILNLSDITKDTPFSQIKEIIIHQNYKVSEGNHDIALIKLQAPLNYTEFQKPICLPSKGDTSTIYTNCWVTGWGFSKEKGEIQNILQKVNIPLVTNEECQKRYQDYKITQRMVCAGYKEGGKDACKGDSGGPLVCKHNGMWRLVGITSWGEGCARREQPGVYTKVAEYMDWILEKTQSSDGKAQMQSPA
Sequence of purified human plasma kallikrein (P03952 whole entry, looked up): as above

Take `CC(C)[C@@H]1/C=C/C[C@H](NC(=O)OC(C)(C)C)c2cc(ccn2)-c2ccccc2NC1=O`: in data set [1] (setting [5]), the ring closure, isolated yield was determined as 10.2%.
Still for that read-out and setting: with `CC(C)[C@H]1/C=C/C[C@H](NC(=O)OC(C)(C)C)c2cc(ccn2)-c2ccccc2NC1=O` the figure was 8.9%.
For `COC(=O)Nc1ccc2c(c1)C(=O)NC/C=C/C[C@H](NC(=O)OC(C)(C)C)c1cc-2ccn1`, in data set [2] (from C=CCNC(=O)c1cc(NC(=O)OC)ccc1-c1ccnc([C@H](CC=C)NC(=O)OC(C)(C)C)c1, […], 3.0 h), the ring closure, yield after HPLC amounted to 39.4%.
For `COC(=O)Nc1ccc2c(c1)NC(=O)[C@H](C)/C=C/C[C@H](NC(=O)OC(C)(C)C)c1nc-2cn1COCC[Si](C)(C)C`, the ring closure, isolated yield in data set [1] (from C=CC[C@H](NC(=O)OC(C)(C)C)c1nc(-c2ccc(NC(=O)OC)cc2NC(=O)[C@H](C)C=C)cn1COCC[Si](C)(C)C, Grubbs II (0.4 eq)/pTsOH, DCM, 10.0 mM, 40.0 °C, 21.5 h) is 40.7%.
In turn, `C[C@@H]1/C=C/C[C@H](NC(=O)OC(C)(C)C)c2cc(ccn2)-c2ccccc2NC1=O` registered a ring closure, isolated yield in data set [1] (from C=CC[C@H](NC(=O)OC(C)(C)C)c1cc(-c2ccccc2NC(=O)[C@H](C)C=C)ccn1, Grubbs II/pTsOH, DCM, 11.8 mM, 40.0 °C, 4.5 h) of 78%.
On to `C[C@@H]1CCC[C@H](N2CCC(c3c(F)ccc(Cl)c3F)=CC2=O)c2cc(ccn2)-c2ccncc2NC1=O` [Example 72, (10R,14S)-14-[4-(3-Chloro-2,6-difluorophenyl)-6-oxo-1,2,3,6-tetrahydropyridin-1-yl]-10-methyl-5,8,16-triazatricyclo[13.3.1.0^2,7]nonadeca-1(19),2(7),3,5,15,17-hexaen-9-one, TFA Salt], for which the inhibition constant (Ki) – broadly, a dissociation constant, usually derived from enzyme kinetics or from competition with a known ligand – in data set [3] is 19 nM; in data set [4], 8.67 nM.
In data set [4], `COC(=O)c1ccc2c(c1)-c1cccc(c1)[C@@H](N1CC=C(c3c(F)ccc(Cl)c3F)CC1=O)CCC[C@@H](C)C(=O)N2` [Example 174, Methyl (10R,14S)-14-[4-(3-chloro-2,6-difluorophenyl)-2-oxo-1,2,3,6-tetrahydropyridin-1-yl]-10-methyl-9-oxo-8-azatricyclo[13.3.1.0^2,7]nonadeca-1(19),2,4,6,15,17-hexaene-4-carboxylate] displayed an inhibition constant Ki of more than 625 nM.
`COC(=O)c1ccc2c(c1)-c1cccc(c1)[C@@H](N1CC=C(c3c(Br)ccc(Cl)c3F)CC1=O)CCC[C@@H](C)C(=O)N2` [Example 176, Methyl (10R,14S)-14-[4-(6-bromo-3-chloro-2-fluorophenyl)-2-oxo-1,2,3,6-tetrahydropyridin-1-yl]-10-methyl-9-oxo-8-azatricyclo[13.3.1.0^2,7]nonadeca-1(19),2,4,6,15,17-hexaene-4-carboxylate] registered a Ki in data set [4] of more than 625 nM.
Compound “tert-butyl N-[(10R,11Z,14S)-17-methoxy-5-[(methoxycarbonyl)amino]-10-methyl-9-oxo-8,16-diazatricyclo[13.3.1.0^2,7]nonadeca-1(19),2,4,6,11,15,17-heptaen-14-yl]carbamate and tert-butyl N-[(10R,11E,14S)-17-methoxy-5-[(methoxycarbonyl)amino]-10-methyl-9-oxo-8,16-diazatricyclo[13.3.1.0^2,7]nonadeca-1(19),2,4,6,11,15,17-heptaen-14-yl]carbamate as a Mixture” displayed a ring closure, yield after HPLC in data set [2] (8.5 mM) of 29%.
